A word on the EC50: it is the concentration needed to bring the measured effect to its halfway point.

For the experiment, the system named is PBMCs infected with VSV-G pseudotyped HIV virus (VSV-G/pNLG1-P2A-ΔEnv). Description: cells. The conditions noted are these: Homo sapiens, PBMC, read-out: EC50 (HIV-TACK cell kill activity). In kind it is cell-based, human.
Take `O=C1Nc2cc(Cn3cncc(CO)c3=O)c(F)cc2[C@@](C#CC2CC2)(C(F)(F)F)N1` [Example 66, (S)-4-(cyclopropylethynyl)-6-fluoro-7-((5-(hydroxymethyl)-6-oxopyrimidin-1(6H)-yl)methyl)-4-(trifluoromethyl)-3,4-dihydroquinazolin-2(1H)-one]: the EC50 came to 188 nM.

Turning to `O=C1Nc2cc(Cn3cnc(Cl)cc3=O)c(Cl)cc2[C@@](C#CC2CC2)(C(F)(F)F)N1` [Example 12, (S)-6-chloro-7-((4-chloro-6-oxopyrimidin-1(6H)-yl)methyl)-4-(cyclopropylethynyl)-4-(trifluoromethyl)-3,4-dihydroquinazolin-2(1H)-one], the EC50 was determined as 33 nM.

Take `Cc1cc(=O)n(Cc2ccc3c(c2)NC(=O)N[C@]3(C#CC2CC2)C(C)(F)F)cn1` [Example 64, (S)-4-(cyclopropylethynyl)-4-(1,1-difluoroethyl)-7-((4-methyl-6-oxopyrimidin-1(6H)-yl)methyl)-3,4-dihydroquinazolin-2(1H)-one]: the EC50 came out at 93 nM.

Regarding `O=C1Nc2cc(Cn3cnccc3=O)c(Cl)cc2[C@@](C#CC2CC2)(C(F)(F)F)N1` [Example 56, (S)-6-chloro-4-(cyclopropylethynyl)-7-((6-oxopyrimidin-1(6H)-yl)methyl)-4-(trifluoromethyl)-3,4-dihydroquinazolin-2(1H)-one], the concentration for a half-maximal effect (EC50) stood at 35 nM.

With `COCc1cc(=O)n(Cc2cc3c(cc2Cl)[C@@](C#CC2CC2)(C(F)(F)F)NC(=O)N3)cn1` [Example 61, (S)-6-chloro-4-(cyclopropylethynyl)-7-((4-(methoxymethyl)-6-oxopyrimidin-1(6H)-yl)methyl)-4-(trifluoromethyl)-3,4-dihydroquinazolin-2(1H)-one], the EC50 is 38 nM.

With `Nc1nccn(Cc2cc3c(cc2Br)[C@@](C#CC2CC2)(C(F)(F)F)NC(=O)N3)c1=O` [Example 45, (S)-7-((3-amino-2-oxopyrazin-1(2H)-yl)methyl)-6-bromo-4-(cyclopropylethynyl)-4-(trifluoromethyl)-3,4-dihydroquinazolin-2(1H)-one], the 50% effective concentration (EC50) amounted to 50 nM.

As for `Nc1nccn(Cc2ccc3c(c2)NC(=O)N[C@]3(C#CC2CC2)C(F)(F)F)c1=O` [Example 9, (S)-7-((3-amino-2-oxopyrazin-1(2H)-yl)methyl)-4-(cyclopropylethynyl)-4-(trifluoromethyl)-3,4-dihydroquinazolin-2(1H)-one], the EC50 turned out to be 30 nM.

As to `CN1C(=O)Nc2cc(Cn3cnccc3=O)ccc2[C@@]1(C#CC1CC1)C(F)(F)F` [Example 73, (S)-4-(cyclopropylethynyl)-3-methyl-7-((6-oxopyrimidin-1(6H)-yl)methyl)-4-(trifluoromethyl)-3,4-dihydroquinazolin-2(1H)-one], the concentration for a half-maximal effect (EC50) was 275 nM.

As to `CCN1C(=O)Nc2cc(Cn3cnccc3=O)ccc2[C@@]1(C#CC1CC1)C(F)(F)F` [Example 74, (S)-4-(cyclopropylethynyl)-3-ethyl-7-((6-oxopyrimidin-1(6H)-yl)methyl)-4-(trifluoromethyl)-3,4-dihydroquinazolin-2(1H)-one], the EC50 was 263 nM.

`Nc1ccnn(Cc2cc3c(cc2F)[C@@](C#CC2CC2)(C(F)(F)F)NC(=O)N3)c1=O` [Example 26, (S)-7-((5-amino-6-oxopyridazin-1(6H)-yl)methyl)-4-(cyclopropylethynyl)-6-fluoro-4-(trifluoromethyl)-3,4-dihydroquinazolin-2(1H)-one]: the EC50 came out at 226 nM.

For `Nc1cccn(Cc2cc3c(cc2F)[C@@](C#CC2CC2)(C(F)(F)F)NC(=O)N3)c1=O` [Example 39, (S)-7-((3-amino-2-oxopyridin-1(2H)-yl)methyl)-4-(cyclopropylethynyl)-6-fluoro-4-(trifluoromethyl)-3,4-dihydroquinazolin-2(1H)-one], the EC50 was 72 nM.

For `CC(F)(F)[C@@]1(C#CC2CC2)NC(=O)Nc2cc(Cn3cnccc3=O)c(F)cc21` [Example 4, (S)-4-(cyclopropylethynyl)-4-(1,1-difluoroethyl)-6-fluoro-7-((6-oxopyrimidin-1(6H)-yl)methyl)-3,4-dihydroquinazolin-2(1H)-one], the EC50 was 16 nM.
